# Source: ChEMBL document CHEMBL4373639, “How mithramycin stereochemistry dictates its structure and DNA binding function” (Medchemcomm, 2019)
# Assay: Binding affinity to dsDNA oligomer GAGGCCTC (unknown origin) assessed as binding constant incubated for 16 hrs in presence of […] by fluorescence based assay
row,Compound,Kd [nM]
1,CO[C@H](C(=O)[C@@H](O)[C@@H](C)O)[C@@H]1Cc2cc3cc(O[C@H]4C[C@@H](O[C@H]5C[C@@H](O)[C@H](O)[C@@H](C)O5)[C@H](O)[C@@H](C)O4)c(C)c(O)c3c(O)c2C(=O)[C@H]1O[C@H]1C[C@@H](O[C@H]2C[C@@H](O[C@H]3C[C@](C)(O)[C@H](O)[C@@H](C)O3)[C@H](O)[C@@H](C)O2)[C@H](O)[C@@H](C)O1,< 1000
2,COC(=O)[C@H](Cc1ccccc1)NC(=O)[C@@H](OC)[C@@H]1Cc2cc3cc(O[C@H]4C[C@@H](O[C@H]5C[C@@H](O)[C@H](O)[C@@H](C)O5)[C@H](O)[C@@H](C)O4)c(C)c(O)c3c(O)c2C(=O)[C@H]1O[C@H]1C[C@@H](O[C@H]2C[C@@H](O[C@H]3C[C@](C)(O)[C@H](O)[C@@H](C)O3)[C@H](O)[C@@H](C)O2)[C@H](O)[C@@H](C)O1,1600
